Laboratory results as given in ChEMBL document CHEMBL4334475, “Aphidicolin Chemistry of the Deep-Sea-Derived Fungus Botryotinia fuckeliana MCCC 3A00494” (J Nat Prod, 2019).
Activity calls are given as the source filed them. The calls are words filed in the database; no cut-off is given here.

Legend:
[1] = test system: HL-60; experiment: Induction of apoptosis in human HL60 cells assessed as increase in PARP cleavage at 11 to 22 uM by Western blot analysis; assay type: functional, cell-based
[2] = test system: HL-60; experiment: Induction of DNA damage in human HL60 cells assessed as increase in gammaH2AX expression at 11 to 22 uM by Western blot analysis; assay type: functional, cell-based
[3] = test system: HL-60; experiment: Potency index, ratio of aphidicolin IC50 to compound IC50 for antiproliferative activity against human HL60 cells; assay type: functional
[4] = test system: HL-60; experiment: Antiproliferative activity against human HL60 cells assessed as reduction in cell viability after 48 hrs by MTT assay; assay type: functional, cell-based; settings: HL-60, 48 h
[5] = test system: T-24; experiment: Induction of DNA damage in human T24 cells assessed as increase in gammaH2AX expression at 11 to 22 uM by Western blot analysis; assay type: functional, cell-based
[6] = test system: T-24; experiment: Antiproliferative activity against human T24 cells assessed as reduction in cell viability after 48 hrs by MTT assay; assay type: functional, cell-based; settings: T-24, 48 h
[7] = test system: T-24; experiment: Induction of apoptosis in human T24 cells assessed as increase in PARP cleavage at 11 to 22 uM by Western blot analysis; assay type: functional, cell-based

| Compound | Activity [1] | Activity [2] | Ratio IC50 [3] | IC50 [4] [µM] | Activity [5] | IC50 [6] [µM] | Activity [7] |
| --- | --- | --- | --- | --- | --- | --- | --- |
| C[C@@]1(CO)[C@H](O)CC[C@@]2(C)[C@H]1C(=O)C[C@H]1C[C@@H]3C[C@@]12CC[C@]3(O)CO | Active | Active | 4 | 6.1 | Active | 2.5 | Active |
| C[C@@]1(CO)[C@H](O)CC[C@@]2(C)[C@H]1CC[C@H]1C[C@@H]3C[C@@]12CC[C@]3(O)CO [APHIDICOLIN] |  |  |  | 24.4 |  |  |  |
